# From ChEMBL document CHEMBL3784933, “Synthesis and antitumor evaluation of trimethoxyanilides based on 4(3H)-quinazolinone scaffolds” (2016)
# Assays:
# Assay type in all cases: functional
# [1] = Cytotoxicity against human OVCAR4 cells assessed as growth inhibition at 10 uM after 48 hrs by SRB assay; details: OVCAR-4, 48 h, read-out: GI
# [2] = tested on: A498; experiment: Cytotoxicity against human A498 cells assessed as growth inhibition at 10 uM after 48 hrs by SRB assay; details: A498, 48 h, read-out: GI
# [3] = Cytotoxicity against human SNB75 cells assessed as growth inhibition at 10 uM after 48 hrs by SRB assay; details: SNB-75, 48 h, read-out: GI
# [4] = tested on: MDA-MB-231; experiment: Cytotoxicity against human MDA-MB-231 cells assessed as growth inhibition at 10 uM after 48 hrs by SRB assay; details: MDA-MB-231, 48 h, read-out: GI
# [5] = tested on: SR; experiment: Cytotoxicity against human SR cells assessed as growth inhibition at 10 uM after 48 hrs by SRB assay; details: read-out: GI
# [6] = Cytotoxicity against human Caki1 cells assessed as growth inhibition at 10 uM after 48 hrs by SRB assay; details: CAKI-1, 48 h, read-out: GI
# [7] = Cytotoxicity against human UACC62 cells assessed as growth inhibition at 10 uM after 48 hrs by SRB assay; details: UACC-62, 48 h, read-out: GI
# [8] = tested on: CCRF-CEM; experiment: Cytotoxicity against human CCRF-CEM cells assessed as growth inhibition at 10 uM after 48 hrs by SRB assay; details: read-out: GI
# [9] = tested on: Malme-3M; experiment: Cytotoxicity against human MALME-3M cells assessed as growth inhibition at 10 uM after 48 hrs by SRB assay; details: read-out: GI
# [10] = Cytotoxicity against human Hs 578T cells assessed as growth inhibition at 10 uM after 48 hrs by SRB assay; details: read-out: GI
# [11] = Cytotoxicity against human RXF393 cells assessed as growth inhibition at 10 uM after 48 hrs by SRB assay; details: RXF 393, 48 h, read-out: GI
# [12] = tested on: NCI-H226; experiment: Cytotoxicity against human NCI-H226 cells assessed as growth inhibition at 10 uM after 48 hrs by SRB assay; details: NCI-H226, 48 h, read-out: GI
# [13] = Cytotoxicity against human UO31 cells assessed as growth inhibition at 10 uM after 48 hrs by SRB assay; details: UO-31, 48 h, read-out: GI
# [14] = tested on: EKVX; experiment: Cytotoxicity against human EKVX cells assessed as growth inhibition at 10 uM after 48 hrs by SRB assay; details: read-out: GI
# [15] = Cytotoxicity against human PC3 cells assessed as growth inhibition at 10 uM after 48 hrs by SRB assay; details: PC-3, 48 h, read-out: GI
# [16] = tested on: ACHN; experiment: Cytotoxicity against human ACHN cells assessed as growth inhibition at 10 uM after 48 hrs by SRB assay; details: read-out: GI
# [17] = tested on: SK-MEL-5; experiment: Cytotoxicity against human SK-MEL-5 cells assessed as growth inhibition at 10 uM after 48 hrs by SRB assay; details: SK-MEL-5, 48 h, read-out: GI
# [18] = tested on: T47D; experiment: Cytotoxicity against human T47D cells assessed as growth inhibition at 10 uM after 48 hrs by SRB assay; details: read-out: GI
# [19] = tested on: NCI-H522; experiment: Cytotoxicity against human NCI-H522 cells assessed as growth inhibition at 10 uM after 48 hrs by SRB assay; details: NCI-H522, 48 h, read-out: GI
# [20] = Cytotoxicity against human HOP62 cells assessed as growth inhibition at 10 uM after 48 hrs by SRB assay; details: HOP-62, 48 h, read-out: GI
# [21] = Cytotoxicity against human RPMI8226 cells assessed as growth inhibition at 10 uM after 48 hrs by SRB assay; details: RPMI-8226, 48 h, read-out: GI
# [22] = tested on: NCI-H23; experiment: Cytotoxicity against human NCI-H23 cells assessed as growth inhibition at 10 uM after 48 hrs by SRB assay; details: NCI-H23, 48 h, read-out: GI
# [23] = Cytotoxicity against human SF268 cells assessed as growth inhibition at 10 uM after 48 hrs by SRB assay; details: SF-268, 48 h, read-out: GI
# [24] = Cytotoxicity against human HOP92 cells assessed as growth inhibition at 10 uM after 48 hrs by SRB assay; details: HOP-92, 48 h, read-out: GI
# [25] = Cytotoxicity against human MOLT4 cells assessed as growth inhibition at 10 uM after 48 hrs by SRB assay; details: MOLT-4, 48 h, read-out: GI
# [26] = Cytotoxicity against human LOXIMVI cells assessed as growth inhibition at 10 uM after 48 hrs by SRB assay; details: LOX IMVI, read-out: GI
# [27] = tested on: K562; experiment: Cytotoxicity against human K562 cells assessed as growth inhibition at 10 uM after 48 hrs by SRB assay; details: K562, 48 h, read-out: GI
# [28] = tested on: A549; experiment: Cytotoxicity against human A549 cells assessed as growth inhibition at 10 uM after 48 hrs by SRB assay; details: A549, 48 h, read-out: GI
SMILES,inhibition of growth at 10 µM [1] [%],inhibition of growth at 10 µM [2] [%],inhibition of growth at 10 µM [3] [%],inhibition of growth at 10 µM [4] [%],inhibition of growth at 10 µM [5] [%],inhibition of growth at 10 µM [6] [%],inhibition of growth at 10 µM [7] [%],inhibition of growth at 10 µM [10] [%],inhibition of growth at 10 µM [13] [%],inhibition of growth at 10 µM [14] [%],inhibition of growth at 10 µM [15] [%],inhibition of growth at 10 µM [17] [%],inhibition of growth at 10 µM [18] [%],inhibition of growth at 10 µM [19] [%],inhibition of growth at 10 µM [21] [%],further results
COc1cc(NC(=O)CCSc2nc3ccc(Cl)cc3c(=O)n2-c2ccccc2)cc(OC)c1OC,15,22,21,10,18,,,,,,,,,,,
COc1cc(NC(=O)CSc2nc3ccccc3c(=O)n2-c2ccccc2)cc(OC)c1OC,12,54,27,23,,20,19,14,48,24,15,16,18,11,,inhibition of growth at 10 µM [8]: 22%; inhibition of growth at 10 µM [9]: 11%; inhibition of growth at 10 µM [11]: 12%; inhibition of growth at 10 µM [12]: 23%; inhibition of growth at 10 µM [16]: 11%; inhibition of growth at 10 µM [20]: 12%
COc1cc(NC(=O)CSc2nc3ccccc3c(=O)n2-c2ccc(F)cc2)cc(OC)c1OC,,72,10,24,,12,19,10,42,13,,11,23,19,14,inhibition of growth at 10 µM [22]: 10%; inhibition of growth at 10 µM [23]: 10%; inhibition of growth at 10 µM [24]: 43%; inhibition of growth at 10 µM [25]: 18%; inhibition of growth at 10 µM [26]: 10%; inhibition of growth at 10 µM [27]: 14%
COc1cc2nc(SCCC(=O)Nc3cc(OC)c(OC)c(OC)c3)n(-c3ccccc3)c(=O)c2cc1OC,,,39,14,13,12,,,25,,18,,14,15,25,inhibition of growth at 10 µM [28]: 14%
